According to patent US20230081426A1, “COMPOUNDS AND METHODS FOR KRAS MODULATION AND INDICATIONS THEREFOR” (Plexxikon Inc., priority 2020, published 2023):

What was measured:
[1] = biological target: T1, G12D-mutant human KRAS (amino acid residues 1-188) (Homo sapiens, UniProt P01116, G12D); assay: KRAS Binding Disruption Assay (AlphaScreen; biotinylated KRpep-2d analogue or RAF1-RBD), G12D; conditions: KRAS G12D; geometric mean; read-out: KRAS GMean IC50 (uM) MUTATION: G12D
T1 construct: G12D or G12C-mutant human KRAS (amino acid residues 1-188) with FLAG tag; made in house; host or cells: E. coli
In short: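 Compounds are titrated against 5-20 nM mutant KRAS and 5-20 nM of either a biotinylated KRpep-2d analogue or RAF1-RBD, incubated 1 h at 25° C. Disruption is detected as reduced Alpha signal after 1 h with donor and acceptor beads at 10 μg/mL.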

[2] = biological target: T2, G12V-mutant human KRAS (amino acid residues 1-188) (Homo sapiens, UniProt P01116, G12V); assay: KRAS Binding Competition Assay (AlphaScreen; biotinylated KRpep-2d analogue), G12V; conditions: geometric mean, read-out: KRAS GMean IC50 (uM) MUTATION: G12V
T2 construct: G12V-mutant human KRAS (amino acid residues 1-188) with FLAG tag was purified from E. coli; made in house; host or cells: E. coli

SMILES | IC50 [1] | IC50 [2]
CN1CCc2cccc(Oc3nc(N4C[C@H]5CC[C@@H](C4)N5)c4ccc(-c5c(O)cccc5F)c(F)c4n3)c2C1 [P-0332, 2-(4-((1R,5S)-3,8-diazabicyclo[3.2.1]octan-3-yl)-8-fluoro-2-((2-methyl-1,2,3,4-tetrahydroisoquinolin-8-yl)oxy)quinazolin-7-yl)-3-fluorophenol] | 10 to 100 µM | 10 to 100 µM
CN1CCc2c(cccc2Oc2nc(N3C[C@H]4CC[C@@H](C3)N4)c3cc(Cl)c(-c4c(O)cccc4F)c(F)c3n2)C1 [P-0333, 2-(4-((1R,5S)-3,8-diazabicyclo[3.2.1]octan-3-yl)-6-chloro-8-fluoro-2-((2-methyl-1,2,3,4-tetrahydroisoquinolin-5-yl)oxy)quinazolin-7-yl)-3-fluorophenol] | 0.0001 to 10 µM | 10 to 100 µM
CN1CCc2c(cccc2Oc2nc(N3C[C@H]4CC[C@@H](C3)N4)c3ccc(-c4c(O)cccc4F)c(F)c3n2)C1 [P-0334, 2-(4-((1R,5S)-3,8-diazabicyclo[3.2.1]octan-3-yl)-8-fluoro-2-((2-methyl-1,2,3,4-tetrahydroisoquinolin-5-yl)oxy)quinazolin-7-yl)-3-fluorophenol] | 10 to 100 µM | 10 to 100 µM
COc1cccc(F)c1-c1c(Cl)cc2c(N3C[C@H]4CC[C@@H](C3)N4)nc(Oc3cccc4c3CN(C)CC4)nc2c1F [P-0335, 4-((1R,5S)-3,8-diazabicyclo[3.2.1]octan-3-yl)-6-chloro-8-fluoro-7-(2-fluoro-6-methoxyphenyl)-2-((2-methyl-1,2,3,4-tetrahydroisoquinolin-8-yl)oxy)quinazoline] | 10 to 100 µM | 10 to 100 µM
CN1CCC[C@H]1COc1nc(N2[C@@H]3CC[C@H]2CNC3)c2ccc(-c3cc(O)cc4ccccc34)cc2n1 [P-0336, 4-(4-((1R,5S)-3,8-diazabicyclo[3.2.1]octan-8-yl)-2-(((S)-1-methylpyrrolidin-2-yl)methoxy)quinazolin-7-yl)naphthalen-2-ol] | 0.0001 to 10 µM | 10 to 100 µM
CN1CCC[C@H]1COc1nc(N2C[C@H]3CC[C@@H](C2)N3)c2ccc(-c3cccc4ccccc34)cc2n1 [P-0337, 4-((1R,5S)-3,8-diazabicyclo[3.2.1]octan-3-yl)-2-(((S)-1-methylpyrrolidin-2-yl)methoxy)-7-(naphthalen-1-yl)quinazoline] | 0.0001 to 10 µM | 100 to 1000 µM
CN1CCC[C@H]1COc1nc(N2C[C@H]3CC[C@@H](C2)N3)c2ccc(-c3c(O)ccc4ccccc34)cc2n1 [P-0338, 1-(4-((1R,5S)-3,8-diazabicyclo[3.2.1]octan-3-yl)-2-(((S)-1-methylpyrrolidin-2-yl)methoxy)quinazolin-7-yl)naphthalen-2-ol] | 0.0001 to 10 µM | 10 to 100 µM
CN1CCC[C@H]1COc1nc(N2C[C@H]3CC[C@@H](C2)N3)c2ccc(-c3cc([N+](=O)[O-])cc4ccccc34)cc2n1 [P-0339, 4-((1R,5S)-3,8-diazabicyclo[3.2.1]octan-3-yl)-2-(((S)-1-methylpyrrolidin-2-yl)methoxy)-7-(3-nitronaphthalen-1-yl)quinazoline] | 10 to 100 µM | 10 to 100 µM
CN1CCC[C@H]1COc1nc(N2C[C@H]3CC[C@@H](C2)N3)c2ccc(-c3cc(N)cc4ccccc34)cc2n1 [P-0340, 4-(4-((1R,5S)-3,8-diazabicyclo[3.2.1]octan-3-yl)-2-(((S)-1-methylpyrrolidin-2-yl)methoxy)quinazolin-7-yl)naphthalen-2-amine] | 0.0001 to 10 µM | 10 to 100 µM
Cc1c(N)cccc1-c1ccc2c(N3C[C@H]4CC[C@@H](C3)N4)nc(OC[C@@H]3CCCN3C)nc2c1 [P-0341, 3-(4-((1R,5S)-3,8-diazabicyclo[3.2.1]octan-3-yl)-2-(((S)-1-methylpyrrolidin-2-yl)methoxy)quinazolin-7-yl)-2-methylaniline] | 100 to 1000 µM | 10 to 100 µM
CN1CCC[C@H]1COc1nc(N2C[C@H]3CC[C@@H](C2)N3)c2ccc(-c3c(O)cccc3Cl)cc2n1 [P-0342, 2-(4-((1R,5S)-3,8-diazabicyclo[3.2.1]octan-3-yl)-2-(((S)-1-methylpyrrolidin-2-yl)methoxy)quinazolin-7-yl)-3-chlorophenol] | 0.0001 to 10 µM | 10 to 100 µM

Other lines, results leading:

IC50 [1] | IC50 [2] | SMILES
10 to 100 µM | 10 to 100 µM | Cc1cccc(N)c1-c1ccc2c(N3C[C@H]4CC[C@@H](C3)N4)nc(OC[C@@H]3CCCN3C)nc2c1 [P-0343, 2-(4-((1R,5S)-3,8-diazabicyclo[3.2.1]octan-3-yl)-2-(((S)-1-methylpyrrolidin-2-yl)methoxy)quinazolin-7-yl)-3-methylaniline]
0.0001 to 10 µM | 100 to 1000 µM | CN1CCC[C@H]1COc1nc(N2C[C@H]3CC[C@@H](C2)N3)c2cc(F)c(N3CC(O)Cc4ccccc43)c(F)c2n1 (stereo partly drawn) [P-0344, 1-(4-((1R,5S)-3,8-diazabicyclo[3.2.1]octan-3-yl)-6,8-difluoro-2-(((S)-1-methylpyrrolidin-2-yl)methoxy)quinazolin-7-yl)-1,2,3,4-tetrahydroquinolin-3-ol]
0.0001 to 10 µM | 10 to 100 µM | CN1CCC[C@H]1COc1nc(N2[C@@H]3CC[C@H]2CN(CC(=O)C2CCNCC2)C3)c2ccc(-c3cc(O)cc4ccccc34)cc2n1 [P-0345, 2-((1R,5S)-8-(7-(3-hydroxynaphthalen-1-yl)-2-(((S)-1-methylpyrrolidin-2-yl)methoxy)quinazolin-4-yl)-3,8-diazabicyclo[3.2.1]octan-3-yl)-1-(piperidin-4-yl)ethan-1-one]
0.0001 to 10 µM | 10 to 100 µM | CN1CCC[C@H]1COc1nc(N2[C@@H]3CC[C@H]2CN(CC(O)CN2CCOCC2)C3)c2ccc(-c3cc(O)cc4ccccc34)cc2n1 (stereo partly drawn) [P-0346, 4-(4-((1R,5S)-3-(2-hydroxy-3-morpholinopropyl)-3,8-diazabicyclo[3.2.1]octan-8-yl)-2-(((S)-1-methylpyrrolidin-2-yl)methoxy)quinazolin-7-yl)naphthalen-2-ol]
0.0001 to 10 µM | 0.0001 to 10 µM | CN1CCC[C@H]1COc1nc(N2[C@@H]3CC[C@H]2CN(C(=O)Nc2cnc[nH]2)C3)c2ccc(-c3cc(O)cc4ccccc34)cc2n1 [P-0347, (1R,5S)-8-(7-(3-hydroxynaphthalen-1-yl)-2-(((S)-1-methylpyrrolidin-2-yl)methoxy)quinazolin-4-yl)-N-(1H-imidazol-5-yl)-3,8-diazabicyclo[3.2.1]octane-3-carboxamide]
10 to 100 µM | 10 to 100 µM | CN1CCC[C@H]1COc1nc(N2[C@@H]3CC[C@H]2CN(CC2(O)CCNCC2)C3)c2ccc(-c3cc(O)cc4ccccc34)cc2n1 [P-0348, 4-(((1R,5S)-8-(7-(3-hydroxynaphthalen-1-yl)-2-(((S)-1-methylpyrrolidin-2-yl)methoxy)quinazolin-4-yl)-3,8-diazabicyclo[3.2.1]octan-3-yl)methyl)piperidin-4-ol]
10 to 100 µM | 0.0001 to 10 µM | CN1CCC[C@H]1COc1nc(N2[C@@H]3CC[C@H]2CN(C(=N)NC#N)C3)c2ccc(-c3cc(O)cc4ccccc34)cc2n1 [P-0349, (1R,5S)-N-cyano-8-(7-(3-hydroxynaphthalen-1-yl)-2-(((S)-1-methylpyrrolidin-2-yl)methoxy)quinazolin-4-yl)-3,8-diazabicyclo[3.2.1]octane-3-carboximidamide]
10 to 100 µM | 0.0001 to 10 µM | CN1CCC[C@H]1COc1nc(N2[C@@H]3CC[C@H]2CN(C(=O)c2c[nH]cn2)C3)c2ccc(-c3cc(O)cc4ccccc34)cc2n1 [P-0350, ((1R,5S)-8-(7-(3-hydroxynaphthalen-1-yl)-2-(((S)-1-methylpyrrolidin-2-yl)methoxy)quinazolin-4-yl)-3,8-diazabicyclo[3.2.1]octan-3-yl)(1H-imidazol-4-yl)methanone]
0.0001 to 10 µM | 0.0001 to 10 µM | O=C(O)CC(=O)N1[C@@H]2CC[C@H]1CN(c1nc(OCC34CCCN3CCC4)nc3c(F)c(-c4cc(O)cc5ccccc45)ccc13)C2 [P-0353, 3-((1R,5S)-3-(8-fluoro-7-(3-hydroxynaphthalen-1-yl)-2-((tetrahydro-1H-pyrrolizin-7a(5H)-yl)methoxy)quinazolin-4-yl)-3,8-diazabicyclo[3.2.1]octan-8-yl)-3-oxopropanoic acid]
0.0001 to 10 µM | 0.0001 to 10 µM | CN(C)c1ccc(/C=C/c2nc(N3C[C@H]4CC[C@@H](C3)N4)c3cc(Cl)c(-c4c(O)cccc4F)c(F)c3n2)cc1 [P-0355, 2-(4-((1R,5S)-3,8-diazabicyclo[3.2.1]octan-3-yl)-6-chloro-2-((E)-4-(dimethylamino)styryl)-8-fluoroquinazolin-7-yl)-3-fluorophenol]
0.0001 to 10 µM | 0.0001 to 10 µM | CN1CCC[C@H]1COc1nc(N2CC3COCC(C2)N3)c2cc(Cl)c(-c3cc(O)cc4ccccc34)c(F)c2n1 [P-0357, 4-(4-(3-oxa-7,9-diazabicyclo[3.3.1]nonan-7-yl)-6-chloro-8-fluoro-2-(((S)-1-methylpyrrolidin-2-yl)methoxy)quinazolin-7-yl)naphthalen-2-ol]
0.0001 to 10 µM | 0.0001 to 10 µM | CN1CCC[C@H]1COc1nc(N2CC3COCC(C2)N3C(=O)CC2SC(=O)NC2=O)c2cc(Cl)c(-c3cc(O)cc4ccccc34)c(F)c2n1 (stereo partly drawn) [P-0358, 5-(2-(7-(6-chloro-8-fluoro-7-(3-hydroxynaphthalen-1-yl)-2-(((S)-1-methylpyrrolidin-2-yl)methoxy)quinazolin-4-yl)-3-oxa-7,9-diazabicyclo[3.3.1]nonan-9-yl)-2-oxoethyl)thiazolidine-2,4-dione]
0.0001 to 10 µM | 10 to 100 µM | Cc1cccc2c1N(c1ccc3c(N4C[C@H]5CC[C@@H](C4)N5)nc(OC[C@@H]4CCCN4C)nc3c1F)CC(O)C2 (stereo partly drawn) [P-0360, 1-(4-((1R,5S)-3,8-diazabicyclo[3.2.1]octan-3-yl)-8-fluoro-2-(((S)-1-methylpyrrolidin-2-yl)methoxy)quinazolin-7-yl)-8-methyl-1,2,3,4-tetrahydroquinolin-3-ol]
